# Reference: patent US4604239A, “Antibiotics” (Eli Lilly and Company, priority 1985, dated 1986)
# Several values for one entry are separate records, joined by “and”; a condition that tells them apart may be missing. Equal values may be shown once. Read-outs that look alike come from different tables or passages of the source.
# Tests used:
# Staphylococcus aureus = experiment: agar-dilution MIC; format: cell-based
# Hemophilus influenzae = experiment: agar-dilution MIC; format: cell-based; details: Table 17
# Bacteroides fragilis = experiment: agar-dilution MIC; format: cell-based; details: Table 14
# Source text: (§1) The agar-dilution procedure described by the International Collaborative study (ICS) group was used to determine the minimum inhibitory concentrations (MIC's).
# [1] = test system: Staphylococcus epidermidis; experiment: agar-dilution MIC; format: cell-based; details: Staphylococcus epidermidis EPI1; Table 17
# Source text: as §1
# Streptococcus pneumoniae = experiment: agar-dilution MIC; format: cell-based; details: Streptococcus pneumoniae Park I; Table 17
# Source text: as §1
# Streptococcus pyogenes = experiment: agar-dilution MIC; format: cell-based; details: Streptococcus pyogenes C203; Table 17
# Source text: as §1
# [2] = test system: Streptococcus sp. (Group D); experiment: agar-dilution MIC; format: cell-based; details: Table 17
# Source text: as §1
# [3] = test system: Bacteroides thetaiotaomicron; format: cell-based; details: Bacteroides thetaiotaomicron 1438; Table 14
# Source text: as §1
# Propionibacterium acnes = experiment: agar-dilution MIC; format: cell-based; details: Propionibacterium acnes 79; Table 14
# Source text: Antibiotic A41030 factors A, B and C have also been tested and found to be active against a genus of anaerobic bacteria identified as Propionibacterium acnes.
# Clostridium difficile = format: cell-based
# Clostridium perfringens = format: cell-based; details: Clostridium perfringens 81; Table 14
# Clostridium septicum = experiment: agar-dilution MIC; format: cell-based; details: Clostridium septicum 1128; Table 14
# Eubacterium aerofaciens = experiment: agar-dilution MIC; format: cell-based; details: Eubacterium aerofaciens 1235; Table 14
# [4] = test system: Peptococcus asaccharolyticus; experiment: agar-dilution MIC; format: cell-based; details: Peptococcus asaccharolyticus 1302; Table 14
# Protocol: The MIC values were determined by the agar-dilution method, and are recorded in Table 15, which follows.
# [5] = test system: Peptostreptococcus anaerobius; experiment: agar-dilution MIC; format: cell-based; details: Peptostreptococcus anaerobius 1428; Table 14
# [6] = test system: Peptostreptococcus intermedius; experiment: agar-dilution MIC; format: cell-based; details: Peptostreptococcus intermedius 1264; Table 14
# [7] = test system: Bacteroides melaninogenicus; experiment: agar-dilution MIC; format: cell-based; details: Bacteroides melaninogenicus 2736; Table 14
# Fusobacterium symbiosum = experiment: agar-dilution MIC; format: cell-based; details: Fusobacterium symbiosum 1470; Table 14
# [8] = test system: Fusobacterium necrophorum; experiment: agar-dilution MIC; format: cell-based; details: Fusobacterium necrophorum 6054A; Table 14
# Staph. aureus = experiment: experimental bacterial infection in mice; format: in vivo; details: two doses subcutaneously
# Protocol: All of the A41030 factors tested have shown in vivo antimicrobial activity against experimental bacterial infections. When two doses of test compound were administered subcutaneously to mice in illustrative infections, the activity observed is measured as an ED50 value [effective dose in mg./kg. to protect fifty percent of the test animals: See Warren Wick, et al., J. Bacteriol. 81, 233-235 (1961)].
# electrometric titration = format: physicochemical; details: electrometric titration in 66% dimethylformamide in water
# Source text: Antibiotic A41030 factor A is a white, crystalline solid.
# solubility = format: physicochemical
# Bacteroides corrodens = experiment: agar-dilution MIC; format: cell-based; details: Bacteroides corrodens 1874; Table 14
# Bacteroides vulgatis = experiment: agar-dilution MIC; format: cell-based; details: Bacteroides vulgatis 1211; Table 14
# Peptococcus prevoti = experiment: agar-dilution MIC; format: cell-based; details: Peptococcus prevoti 1281; Table 14
substance,measurement,setting,value
A41030 factor E,MIC,"Staphylococcus aureus; Staphylococcus aureus S13E, Table 17",0.25 µg/mL
same,MIC,Staphylococcus aureus; in µg/mL,0.125 and 0.25
same,MIC,Hemophilus influenzae; Haemophilus influenzae 76,8 µg/mL
same,MIC,Hemophilus influenzae; Haemophilus influenzae C.L.,8 µg/mL
same,MIC,Bacteroides fragilis; Bacteroides fragilis 111,64 µg/mL
same,MIC,Bacteroides fragilis; Bacteroides fragilis 1877,32 µg/mL
same,MIC,Bacteroides fragilis; Bacteroides fragilis 1936B,64 µg/mL
same,MIC,[1],0.25 µg/mL
same,MIC,Streptococcus pneumoniae,0.25 µg/mL
same,MIC,Streptococcus pyogenes,0.25 µg/mL
same,MIC,[2]; Streptococcus sp. Group D 9960,1 µg/mL
same,MIC,[2]; Streptococcus sp. Group D X66,1 µg/mL
same,MIC,[3],64 µg/mL
same,MIC,Propionibacterium acnes,0.5 µg/mL
same,MIC,"Clostridium difficile; Clostridium difficile 78, Table 16",0.5 µg/mL
same,MIC,"Clostridium difficile; Clostridium difficile 107B, Table 16",0.5 µg/mL
same,MIC,"Clostridium difficile; Clostridium difficile 111F, Table 16",0.5 µg/mL
same,MIC,"Clostridium difficile; Clostridium difficile 1153, Table 16",1.0 µg/mL
same,MIC,"Clostridium difficile; Clostridium difficile 2634, Table 16",1.0 µg/mL
same,MIC,"Clostridium difficile; Clostridium difficile 2994, Table 14",0.5 µg/mL
same,MIC,"Clostridium difficile; Clostridium difficile 3424-5B, Table 16",0.5 µg/mL
same,MIC,"Clostridium difficile; Clostridium difficile 3816, Table 16",0.5 µg/mL
same,MIC,"Clostridium difficile; Clostridium difficile 3950D, Table 16",0.5 µg/mL
same,MIC,"Clostridium difficile; Clostridium difficile 6890, Table 16",0.5 µg/mL
same,MIC,"Clostridium difficile; Clostridium difficile 8484, Table 16",0.5 µg/mL
same,MIC,"Clostridium difficile; Clostridium difficile A-194, Table 16",0.5 µg/mL
same,MIC,"Clostridium difficile; Clostridium difficile A-195, Table 16",0.5 µg/mL
same,MIC,"Clostridium difficile; Clostridium difficile A-196, Table 16",1.0 µg/mL
same,MIC,"Clostridium difficile; Clostridium difficile A-279, Table 16",0.5 µg/mL
same,MIC,"Clostridium difficile; Clostridium difficile A-280, Table 16",0.5 µg/mL
same,MIC,"Clostridium difficile; Clostridium difficile A-281, Table 16",1.0 µg/mL
same,MIC,"Clostridium difficile; Clostridium difficile WAL-2112, Table 16",0.5 µg/mL
same,MIC,"Clostridium difficile; Clostridium difficile WAL-3657, Table 16",0.5 µg/mL
same,MIC,"Clostridium difficile; Clostridium difficile WAL-4268, Table 16",0.5 µg/mL
same,MIC,Clostridium perfringens,1.0 µg/mL
same,MIC,Clostridium septicum,0.5 µg/mL
same,MIC,Eubacterium aerofaciens,0.5 µg/mL
same,MIC,[4],≤ 0.25 µg/mL
same,MIC,[5],32 µg/mL
same,MIC,[6],32 µg/mL
same,MIC,[7],32 µg/mL
same,MIC,Fusobacterium symbiosum,1.0 µg/mL
same,MIC,[8],0.5 µg/mL
same,ED50,Staph. aureus,< 0.31 mg/kg
same,possibly additional pKa's,electrometric titration,> 10
same,solubility (solvents),solubility,soluble in the same solvents as factor A
same,MIC,Bacteroides corrodens,64 µg/mL
same,MIC,Bacteroides vulgatis,32 µg/mL
same,MIC,Peptococcus prevoti,32 µg/mL
